# Results as given in PubChem BioAssay AID2060341 (Molecular Pharmacology Branch, DTP, NCI, 2025).
# Several values for one entry are separate records, joined by “and”; a condition that tells them apart may be missing. Equal values may be shown once.
# Test system: 327498-153-R-J2-PDC multicell spheroid viability
# Assay: Anticancer human tumor 327498-153-R-J2-PDC patient-derived uterine carcinosarcoma cell line growth inhibition [IpAb]
# Details: for viability, T/C: stronger effect = lower value
# Method in brief: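 Spheroids of 60% malignant cells, 25% HUVEC and 15% MSC were exposed to targeted agents combined with ipatasertib or abemaciclib. Doses started at or near clinical Cmax (10 microM when unknown) and fell in half-log steps.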
# [1] = curve of first compound, second compound 0.01 µM
# [2] = curve of first compound, second compound 0.0316 µM
# [3] = curve of first compound, second compound 0.1 µM
# [4] = curve of first compound, second compound 0.316 µM
# [5] = curve of first compound, second compound 1 µM
# [6] = second compound 0.01 µM, first compound 0.0316 µM
# [7] = second compound 0.01 µM, first compound 0.1 µM
# [8] = second compound 0.01 µM, first compound 0.316 µM
# [9] = second compound 0.01 µM, first compound 1 µM
# [10] = second compound 0.01 µM, first compound 3.16 µM
# [11] = second compound 0.01 µM, first compound 10 µM
# [12] = second compound 0.0316 µM, first compound 0.0316 µM
# [13] = second compound 0.0316 µM, first compound 0.1 µM
# [14] = second compound 0.0316 µM, first compound 0.316 µM
# [15] = second compound 0.0316 µM, first compound 1 µM
# [16] = second compound 0.0316 µM, first compound 3.16 µM
# [17] = second compound 0.0316 µM, first compound 10 µM
# [18] = second compound 0.1 µM, first compound 0.0316 µM
# [19] = second compound 0.1 µM, first compound 0.1 µM
# [20] = second compound 0.1 µM, first compound 0.316 µM
# [21] = second compound 0.1 µM, first compound 1 µM
# [22] = second compound 0.1 µM, first compound 3.16 µM
# [23] = second compound 0.1 µM, first compound 10 µM
# [24] = second compound 0.316 µM, first compound 0.0316 µM
# [25] = second compound 0.316 µM, first compound 0.1 µM
# [26] = second compound 0.316 µM, first compound 0.316 µM
# [27] = second compound 0.316 µM, first compound 1 µM
# [28] = second compound 0.316 µM, first compound 3.16 µM
# [29] = second compound 0.316 µM, first compound 10 µM
# [30] = second compound 1 µM, first compound 0.0316 µM
# [31] = second compound 1 µM, first compound 0.1 µM
# [32] = second compound 1 µM, first compound 0.316 µM
# [33] = second compound 1 µM, first compound 1 µM
# [34] = second compound 1 µM, first compound 3.16 µM
# [35] = second compound 1 µM, first compound 10 µM
# 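Throughout, for viability, T/C: 100% = DMSO vehicle control viability.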
smiles,measurement,setting,value
C=CCn1c(=O)c2cnc(Nc3ccc(N4CCN(C)CC4)cc3)nc2n1-c1cccc(C(C)(C)O)n1 + CCN1CCN(Cc2ccc(Nc3ncc(F)c(-c4cc(F)c5nc(C)n(C(C)C)c5c4)n3)nc2)CC1,IC50,[1],318 nM
same,IC50,[2],261 nM
same,IC50,[3],222 nM
same,IC50,[4],250 nM
same,IC50,[5],313 nM
same,"viability, T/C",[6],94.3%
same,"viability, T/C",[7],88.5%
same,"viability, T/C",[8],50.6%
same,"viability, T/C",[9],5.09%
same,"viability, T/C",[10],4.75%
same,"viability, T/C",[11],5.85%
same,"viability, T/C",[12],84.4%
same,"viability, T/C",[13],76.9%
same,"viability, T/C",[14],44.9%
same,"viability, T/C",[15],6.81%
same,"viability, T/C",[16],5.01%
same,"viability, T/C",[17],6.96%
same,"viability, T/C",[18],69.1%
same,"viability, T/C",[19],68.5%
same,"viability, T/C",[20],41.9%
same,"viability, T/C",[21],11.1%
same,"viability, T/C",[22],7.8%
same,"viability, T/C",[23],9.75%
same,"viability, T/C",[24],66.2%
same,"viability, T/C",[25],61.1%
same,"viability, T/C",[26],47.3%
same,"viability, T/C",[27],24%
same,"viability, T/C",[28],14.6%
same,"viability, T/C",[29],14.8%
same,"viability, T/C",[30],60.6%
same,"viability, T/C",[31],58.6%
same,"viability, T/C",[32],50.4%
same,"viability, T/C",[33],31.8%
same,"viability, T/C",[34],20.7%
same,"viability, T/C",[35],14.9%
CC(C)n1nc(-c2ccc3oc(N)nc3c2)c2c(N)ncnc21,"viability, T/C",compound 0.000316 µM,103% and 88.9%
same,"viability, T/C",compound 0.001 µM,96.1% and 101%
same,"viability, T/C",compound 0.00316 µM,81.9% and 88%
same,"viability, T/C",compound 0.01 µM,54.3% and 52.7%
same,"viability, T/C",compound 0.0316 µM,31.7% and 27.2%
same,"viability, T/C",compound 0.1 µM,19.6% and 18.2%
same,IC50,curve of compound,12.7 nM and 11.5 nM
C=CC(=O)N1CCN(c2nc(=O)n(-c3c(C)ccnc3C(C)C)c3nc(-c4c(O)cccc4F)c(F)cc23)C(C)C1 (configuration not stated) + CCN1CCN(Cc2ccc(Nc3ncc(F)c(-c4cc(F)c5nc(C)n(C(C)C)c5c4)n3)nc2)CC1,IC50,[1],209 nM
same,IC50,[2],< 31.6 nM
same,IC50,[3],< 31.6 nM
same,IC50,[4],< 31.6 nM
same,IC50,[5],< 31.6 nM
same,"viability, T/C",[6],63.7%
same,"viability, T/C",[7],52.8%
same,"viability, T/C",[8],49%
same,"viability, T/C",[9],44.5%
same,"viability, T/C",[10],43%
same,"viability, T/C",[11],42.2%
same,"viability, T/C",[12],50.3%
same,"viability, T/C",[13],42.7%
same,"viability, T/C",[14],40%
same,"viability, T/C",[15],41.5%
same,"viability, T/C",[16],38%
same,"viability, T/C",[17],38.4%
same,"viability, T/C",[18],42.5%
same,"viability, T/C",[19],38.1%
same,"viability, T/C",[20],36.9%
same,"viability, T/C",[21],30.7%
same,"viability, T/C",[22],38.6%
same,"viability, T/C",[23],35.5%
same,"viability, T/C",[24],35.7%
same,"viability, T/C",[25],33.2%
same,"viability, T/C",[26],31.5%
same,"viability, T/C",[27],32.8%
same,"viability, T/C",[28],36.5%
same,"viability, T/C",[29],36.8%
same,"viability, T/C",[30],37%
same,"viability, T/C",[31],36.5%
same,"viability, T/C",[32],29.1%
same,"viability, T/C",[33],35.5%
same,"viability, T/C",[34],38.1%
same,"viability, T/C",[35],44.1%
Cn1cnc2c(F)c(Nc3ccc(Br)cc3Cl)c(C(=O)NOCCO)cc21 + CCN1CCN(Cc2ccc(Nc3ncc(F)c(-c4cc(F)c5nc(C)n(C(C)C)c5c4)n3)nc2)CC1,IC50,[1],190 nM
same,IC50,[2],19.5 nM
same,IC50,[3],< 9.49 nM
same,IC50,[4],< 9.49 nM
same,IC50,[5],< 9.49 nM
same,"viability, T/C","second compound 0.01 µM, first compound 0.00949 µM",79.8%
same,"viability, T/C","second compound 0.01 µM, first compound 0.03 µM",64.2%
same,"viability, T/C","second compound 0.01 µM, first compound 0.0949 µM",53.6%
same,"viability, T/C","second compound 0.01 µM, first compound 0.3 µM",48.5%
same,"viability, T/C","second compound 0.01 µM, first compound 0.949 µM",38.1%
same,"viability, T/C","second compound 0.01 µM, first compound 3 µM",24.4%
same,"viability, T/C","second compound 0.0316 µM, first compound 0.00949 µM",54.8%
same,"viability, T/C","second compound 0.0316 µM, first compound 0.03 µM",46.3%
same,"viability, T/C","second compound 0.0316 µM, first compound 0.0949 µM",40.3%
same,"viability, T/C","second compound 0.0316 µM, first compound 0.3 µM",39%
same,"viability, T/C","second compound 0.0316 µM, first compound 0.949 µM",31.6%
same,"viability, T/C","second compound 0.0316 µM, first compound 3 µM",22%
same,"viability, T/C","second compound 0.1 µM, first compound 0.00949 µM",48.9%
same,"viability, T/C","second compound 0.1 µM, first compound 0.03 µM",42.7%
same,"viability, T/C","second compound 0.1 µM, first compound 0.0949 µM",39.5%
same,"viability, T/C","second compound 0.1 µM, first compound 0.3 µM",33.9%
same,"viability, T/C","second compound 0.1 µM, first compound 0.949 µM",28.5%
same,"viability, T/C","second compound 0.1 µM, first compound 3 µM",20.9%
same,"viability, T/C","second compound 0.316 µM, first compound 0.00949 µM",42.9%
same,"viability, T/C","second compound 0.316 µM, first compound 0.03 µM",41.7%
same,"viability, T/C","second compound 0.316 µM, first compound 0.0949 µM",35.9%
same,"viability, T/C","second compound 0.316 µM, first compound 0.3 µM",33%
same,"viability, T/C","second compound 0.316 µM, first compound 0.949 µM",24.6%
same,"viability, T/C","second compound 0.316 µM, first compound 3 µM",20.3%
same,"viability, T/C","second compound 1 µM, first compound 0.00949 µM",45.3%
same,"viability, T/C","second compound 1 µM, first compound 0.03 µM",43%
same,"viability, T/C","second compound 1 µM, first compound 0.0949 µM",36.5%
same,"viability, T/C","second compound 1 µM, first compound 0.3 µM",29.4%
same,"viability, T/C","second compound 1 µM, first compound 0.949 µM",26.3%
same,"viability, T/C","second compound 1 µM, first compound 3 µM",17.8%
Cn1ncnc1[C@H]1c2n[nH]c(=O)c3cc(F)cc(c23)N[C@@H]1c1ccc(F)cc1 + CC(C)NCC(C(=O)N1CCN(c2ncnc3c2C(C)CC3O)CC1)c1ccc(Cl)cc1,IC50,[3],23.7 nM
same,IC50,[4],8.7 nM
same,IC50,[5],1.57 nM
same,IC50,"curve of first compound, second compound 3.16 µM",0.58 nM
same,IC50,"curve of first compound, second compound 10 µM",< 0.316 nM
same,"viability, T/C","second compound 0.1 µM, first compound 0.000316 µM",94.7%
same,"viability, T/C","second compound 0.1 µM, first compound 0.001 µM",93.1%
same,"viability, T/C","second compound 0.1 µM, first compound 0.00316 µM",83.7%
same,"viability, T/C","second compound 0.1 µM, first compound 0.01 µM",69.7%
same,"viability, T/C",[18],43.1%
same,"viability, T/C",[19],25.1%
same,"viability, T/C","second compound 0.316 µM, first compound 0.000316 µM",74.5%
same,"viability, T/C","second compound 0.316 µM, first compound 0.001 µM",71.6%
same,"viability, T/C","second compound 0.316 µM, first compound 0.00316 µM",64%
same,"viability, T/C","second compound 0.316 µM, first compound 0.01 µM",47.8%
same,"viability, T/C",[24],31.1%
same,"viability, T/C",[25],20.6%
same,"viability, T/C","second compound 1 µM, first compound 0.000316 µM",60%
same,"viability, T/C","second compound 1 µM, first compound 0.001 µM",57.8%
same,"viability, T/C","second compound 1 µM, first compound 0.00316 µM",39.7%
same,"viability, T/C","second compound 1 µM, first compound 0.01 µM",36.6%
same,"viability, T/C",[30],25.8%
same,"viability, T/C",[31],14.7%
same,"viability, T/C","second compound 3.16 µM, first compound 0.000316 µM",48.7%
same,"viability, T/C","second compound 3.16 µM, first compound 0.001 µM",53.4%
same,"viability, T/C","second compound 3.16 µM, first compound 0.00316 µM",37.8%
same,"viability, T/C","second compound 3.16 µM, first compound 0.01 µM",26.7%
same,"viability, T/C","second compound 3.16 µM, first compound 0.0316 µM",21.1%
same,"viability, T/C","second compound 3.16 µM, first compound 0.1 µM",12.8%
same,"viability, T/C","second compound 10 µM, first compound 0.000316 µM",39%
same,"viability, T/C","second compound 10 µM, first compound 0.001 µM",35.2%
same,"viability, T/C","second compound 10 µM, first compound 0.00316 µM",26.9%
same,"viability, T/C","second compound 10 µM, first compound 0.01 µM",20.7%
same,"viability, T/C","second compound 10 µM, first compound 0.0316 µM",14.8%
same,"viability, T/C","second compound 10 µM, first compound 0.1 µM",10.4%
